Patent US20250154163A1, “Pyrimidinone-Containing 17-Beta-Hydroxysteroid Dehydrogenase Type 13 Inhibitors” (ENANTA PHARMACEUTICALS, INC., priority 2023, published 2025)

Legend:
[1] = target: T1, human HSD17β13 (stable HEK293T cell line overexpressing human HSD17β13) (Homo sapiens, UniProt Q7Z5P4); experiment: HSD17β13 inhibitor cell-based screening assay (conversion of estradiol-d2 to estrone-d2 by RF-MS); conditions: conversion of estradiol-d2 to estrone-d2 after 24 hours
T1 construct: expressed in transfected cells
T1 sequence (Q7Z5P4 20-300): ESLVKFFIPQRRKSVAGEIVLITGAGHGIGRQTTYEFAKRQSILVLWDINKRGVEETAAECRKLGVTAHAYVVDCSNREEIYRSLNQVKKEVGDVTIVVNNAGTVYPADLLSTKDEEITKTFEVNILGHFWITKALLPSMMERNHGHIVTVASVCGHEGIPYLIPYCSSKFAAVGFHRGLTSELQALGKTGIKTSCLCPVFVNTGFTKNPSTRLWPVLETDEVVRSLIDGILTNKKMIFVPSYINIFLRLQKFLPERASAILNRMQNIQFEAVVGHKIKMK
Outline: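 Cellular IC50 is based on 24-h conversion of estradiol-d2 (5 μM final) to estrone-d2, measured by RF-MS in acetonitrile-precipitated supernatants. Assay uses human HSD17β13-overexpressing HEK293T cells (7.5E3/well, 1% charcoal/dextran FBS MEM), with compounds dosed as a 9-point 1:3 series to 10 μM final. ATPlite luminescence on overexpressing and parent lines measured viability.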

[2] = target: T2, Recombinant human 17β-HSD13 (Homo sapiens, UniProt Q7Z5P4); experiment: 17β-HSD13 rapid-fire mass spectrometry assay (RF/MS assay); format: biochemical; conditions: inhibition of 17β-HSD13, RF/MS assay; HSD17B13 80 nM, LTB4 10 μM, NAD+ 0.5 mM, RT 3 h
T2 construct: host or cells: Sf9 insect cells
T2 sequence (Q7Z5P4 20-300): T1 sequence (Q7Z5P4 20-300)
Outline: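 Purified recombinant human 17β-HSD13 (sf9-expressed, 80 nM) incubated with compound (0–100 μM), 10 μM LTB4 and 0.5 mM NAD+ in 20 mM Tris pH 7.5, 0.005% BSA, 0.01% Tween-20, 3 h at RT. 12-oxo-LTB4 formation quantified by RapidFire MS/MS; percent conversion normalized to controls, IC50 from variable-slope fit, duplicates.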

Row | SMILES | IC50 [1] [nM] | IC50 [2] [nM]
1 | COc1cc(-c2nc3sc4c(O)c(Cl)ccc4c3c(=O)n2Cc2cnco2)c(C2CC2)cc1F [Example 82, 7-chloro-2-(2-cyclopropyl-4-fluoro-5-methoxyphenyl)-8-hydroxy-3-(oxazol-5-ylmethyl)benzo[4,5]thieno[2,3-d]pyrimidin-4(3H)-one] | < 100 | < 100
2 | O=c1c2c(nc(-c3ccc(Cl)cc3C3CC3)n1Cc1cnco1)sc1c(O)c(Cl)ccc12 [Example 106] | < 100 | < 100
3 | O=c1c2c(nc(-c3cc(Cl)c(Cl)cc3C3CC3)n1Cc1cnco1)sc1c(O)c(Cl)ccc12 [Example 77] | < 100 | < 100
4 | COc1ccc(-c2nc3sc4c(O)c(N)ccc4c3c(=O)n2Cc2cnco2)c(C2CC2)c1 [Example 28, 7-amino-2-(2-cyclopropyl-4-methoxyphenyl)-8-hydroxy-3-(oxazol-5-ylmethyl)benzo[4,5]thieno[2,3-d]pyrimidin-4(3H)-one] | 1000 to 100000 | 100 to 1000
5 | COc1ccc(-c2nc3sc4c(O)c(Cl)ccc4c3c(=O)n2Cc2cc(C(F)(F)F)no2)c(C2CC2)c1 [Example 48, 7-chloro-2-(2-cyclopropyl-4-methoxyphenyl)-8-hydroxy-3-((3-(trifluoromethyl)isoxazol-5-yl)methyl)benzo[4,5]thieno[2,3-d]pyrimidin-4(3H)-one] | < 100 | < 100
6 | COc1ccc(-c2nc3sc4c(C=O)cccc4c3c(=O)n2Cc2cnco2)c(C2CC2)c1 [Example 15, 2-(2-cyclopropyl-4-methoxyphenyl)-3-(oxazol-5-ylmethyl)-4-oxo-3,4-dihydrobenzo[4,5]thieno[2,3-d]pyrimidine-8-carbaldehyde] | 1000 to 100000 | > 10000
7 | COc1cc(C2CC2)c(-c2nc3sc4c(O)c(Cl)ccc4c3c(=O)n2Cc2cnco2)cc1F [Example 76, 7-chloro-2-(2-cyclopropyl-5-fluoro-4-methoxyphenyl)-8-hydroxy-3-(oxazol-5-ylmethyl)benzo[4,5]thieno[2,3-d]pyrimidin-4(3H)-one] | < 100 | < 100
8 | O=c1c2c(nc(-c3ccc(C(F)(F)F)cc3C3CC3)n1Cc1cnco1)sc1c(O)c(Cl)ccc12 [Example 135] | < 100 | < 100
9 | O=c1c2c(nc(-c3ncc(C(F)(F)F)cc3C3CC3)n1Cc1cnc(C(F)(F)F)nc1)sc1c(O)c(Cl)ccc12 [Example 99] | < 100 | < 100
10 | COc1ccc(-c2nc3sc4c(O)c(C)ccc4c3c(=O)n2Cc2cnco2)c(C2CC2)c1 [Example 32, 2-(2-cyclopropyl-4-methoxyphenyl)-8-hydroxy-7-methyl-3-(oxazol-5-ylmethyl)benzo[4,5]thieno[2,3-d]pyrimidin-4(3H)-one] | 100 to 500 | < 100

The remaining lines, values ahead:

Row | IC50 [1] [nM] | IC50 [2] [nM] | SMILES
11 | 1000 to 100000 | > 10000 | COc1ccc(-c2nc3sc4c(NC(C)=O)cccc4c3c(=O)n2Cc2cnco2)c(C2CC2)c1 [Example 4, N-(2-(2-cyclopropyl-4-methoxyphenyl)-3-(oxazol-5-ylmethyl)-4-oxo-3,4-dihydrobenzo[4,5]thieno[2,3-d]pyrimidin-8-yl)acetamide]
12 | 500 to 1000 | > 10000 | COc1ccc(-c2nc3sc4c(ccc5[nH]c(=O)oc54)c3c(=O)n2Cc2cnco2)c(C2CC2)c1 [Example 29, 8-(2-cyclopropyl-4-methoxyphenyl)-7-(oxazol-5-ylmethyl)-3,7-dihydrooxazolo[5″,4″:3′,4′]benzo[1′,2′:4,5]thieno[2,3-d]pyrimidine-2,6-dione]
13 | 100 to 500 | 100 to 1000 | COc1ccc(-c2nc3sc4c(O)c(Cl)cc(Cl)c4c3c(=O)n2Cc2cnco2)c(C2CC2)c1 [Example 18, 5,7-dichloro-2-(2-cyclopropyl-4-methoxyphenyl)-8-hydroxy-3-(oxazol-5-ylmethyl)benzo[4,5]thieno[2,3-d]pyrimidin-4(3H)-one]
14 | < 100 | < 100 | O=c1c2c(nc(-c3c(F)cc(F)cc3C3CC3)n1Cc1cnco1)sc1c(O)c(Cl)ccc12 [Example 144]
15 | < 100 | < 100 | CCc1ncc(Cn2c(-c3ccc(OC)cc3C3CC3)nc3sc4c(O)c(Cl)ccc4c3c2=O)s1 [Example 41, 7-chloro-2-(2-cyclopropyl-4-methoxyphenyl)-3-((2-ethylthiazol-5-yl)methyl)-8-hydroxybenzo[4,5]thieno[2,3-d]pyrimidin-4(3H)-one]
16 | < 100 | < 100 | CC(C)(C)c1ccc(-c2nc3sc4c(O)c(Cl)ccc4c3c(=O)n2Cc2cnco2)c(C2CC2)c1 [Example 75, 2-(4-(tert-butyl)-2-cyclopropylphenyl)-7-chloro-8-hydroxy-3-(oxazol-5-ylmethyl)benzo[4,5]thieno[2,3-d]pyrimidin-4(3H)-one]
17 | < 100 | < 100 | O=c1c2c(nc(-c3cc(F)c(C(F)F)cc3C3CC3)n1Cc1cc(C(F)(F)F)no1)sc1c(O)c(Cl)ccc12 [Example 175]
18 | < 100 | < 100 | O=c1c2c(nc(-c3cc(F)c(F)cc3C3CC3)n1Cc1cnc(C(F)(F)F)nc1)sc1c(O)c(Cl)ccc12 [Example 63, 7-chloro-2-(2-cyclopropyl-4,5-difluorophenyl)-8-hydroxy-3-((2-(trifluoromethyl)pyrimidin-5-yl)methyl)benzo[4,5]thieno[2,3-d]pyrimidin-4(3H)-one]
19 | < 100 | < 100 | O=c1c2c(nc(-c3ccc(C(F)F)cc3C3CC3)n1Cc1cc(C(F)(F)F)no1)sc1c(O)c(Cl)ccc12 [Example 171]
20 | < 100 | 100 to 1000 | COc1cc(C2CC2)c(-c2nc3sc4c(O)c(Cl)ccc4c3c(=O)n2Cc2cnco2)cc1C(F)(F)F [Example 78]
21 | < 100 | < 100 | O=c1c2c(nc(-c3cc(F)c(Cl)cc3C3CC3)n1Cc1cnco1)sc1c(O)c(Cl)ccc12 [Example 123]
22 | 1000 to 100000 | 1000 to 10000 | COc1ccc(-c2nc3sc4c(C(N)=O)cccc4c3c(=O)n2Cc2cnco2)c(C2CC2)c1 [Example 3, 2-(2-cyclopropyl-4-methoxyphenyl)-3-(oxazol-5-ylmethyl)-4-oxo-3,4-dihydrobenzo[4,5]thieno[2,3-d]pyrimidine-8-carboxamide]
